Results from patent US9723989B2, “Ex vivo motility contrast imaging” (Purdue Research Foundation, priority 2015, dated 2017).

Tested on: DLD-1 tumor spheroid
Experiment: Biodynamic imaging / tissue dynamics spectroscopy, combined (Het, Div) metric of drug response
Format: cell-based
Settings: per-pixel TDS drug-response spectrograms, FIG. 14, FIG. 15
Text: There are two light paths in the optical coherence imaging system. The laser source provides light which is intensity-controlled by the neutral density filter and size-controlled by lenses L1 and L2. Light is communicated through a half-wave plate, and is then communicated through a polarizing beam splitter (PBS1) which generates an object path and a reference path. Lenses L3 and L4 expand the reference beam, and lens L5 performs the Fourier transform of the back-scattered dynamic speckle from a target. The wave plates (half-wave plate and quarter-wave plate) and the PBS2 ensure most of the laser power is in the object beam, and most of the back-scattered signal reaches the charge coupled device (CCD). The target is often a multicellular tumor spheroid, but can be any living biological specimen that is sufficiently immobilized, such as living tissue obtained by surgical biopsy or by needle biopsy. In TDS experiments, the images are captured at a fixed-depth (usually the mid-plane of the tumor tissue). For example, if the tumor spheroid has a diameter of 500 microns, the images captured by the CCD camera are the Fourier Domain back-scattered dynamic speckle holograms at the fixed depth of 250 microns in the tumor spheroid. Conversely, sections from multiple depths can be acquired to obtain stacks of images that are reconstructed into three-dimensional optical coherence volumetric images. In each 4 min interval, 2 acquisition rates are applied. First 200 images are captured at 25 fps; then another 100 images are captured at 0.5 fps. Thus after combining the high frequency data and the low frequency data together, in each 4 min interval (each data set), the spectrum frequency range is from 0.005 Hz to 12.5 Hz across more than 3 orders of magnitude.
The high-frequency acquisition generates a series of image frames in which the speckle varies in intensity from frame to frame. These intensities are analyzed using a Fourier transform to generate a high-frequency spectrum. The low-frequency acquisition similarly generates a low-frequency spectrum. These high- and low-frequency spectra overlap over a frequency range. A stitching algorithm is performed that combined the high- and low-frequency spectra into a single broad-band spectrum. This spectrum relates to the 300 images and constitutes one time-point spectrum. The process is repeated to generate a series of time-point spectra.
The outcome of the heterogeneity sampling can be encapsulated in a small number of metrics that are communicated to the operator. […]
An example of spatial non-uniformity is shown in FIG. 14 for the Raf inhibitor drug Sorafenib applied to a DLD-1 tumor spheroid. […] These spectrograms were analyzed for intensity and for spectral content. […]

Compound: CNC(=O)c1cc(Oc2ccc(NC(=O)Nc3ccc(Cl)c(C(F)(F)F)c3)cc2)ccn1 [Sorafenib]
- Heterogeneity (Het) - how spatially uniform is the response: 0.83

Compound: CC(C)[C@@H]1NC(=O)[C@H](C)OC(=O)[C@@H](C(C)C)NC(=O)[C@@H](C(C)C)OC(=O)[C@H](C(C)C)NC(=O)[C@H](C)OC(=O)[C@@H](C(C)C)NC(=O)[C@@H](C(C)C)OC(=O)[C@H](C(C)C)NC(=O)[C@H](C)OC(=O)[C@@H](C(C)C)NC(=O)[C@@H](C(C)C)OC1=O [valinomycin]
- Heterogeneity (Het) - how spatially uniform is the response: One of the most uniform

Compound: CC(=O)O[C@H]1C(=O)[C@@]2(C)[C@H]([C@H](OC(=O)c3ccccc3)[C@]3(O)C[C@H](OC(=O)[C@H](O)[C@@H](NC(=O)c4ccccc4)c4ccccc4)C(C)=C1C3(C)C)[C@]1(OC(C)=O)CO[C@@H]1C[C@@H]2O [taxol]
- Diversity (Div) - phenotypic diversity, difference in spectrogram features / spectral content: spectral content appears the same for core and shell
- Heterogeneity (Het) - how spatially uniform is the response: high spatial heterogeneity
